What was measured:
Assay in all cases: relative viability (nuclei count vs DMSO), 5 days (fraction); higher = more cells survive
Bortezomib + Palbociclib = compound: CC(C)C[C@H](NC(=O)[C@H](Cc1ccccc1)NC(=O)c1cnccn1)B(O)O [Bortezomib] + CC(=O)c1c(C)c2cnc(Nc3ccc(N4CCNCC4)cn3)nc2n(C2CCCC2)c1=O [Palbociclib] (partner 0.5 µM)
Outline: (§1)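 Each reported value is a median over duplicate plates. It expresses relative viability: treated-well nuclei count divided by vehicle-well nuclei count. Lung cancer cell lines in 1536-well plates were dosed by pin tool a day after seeding, alone with one drug or with a fixed anchor-drug dose plus five library-drug doses (not always all listed) in √10 steps, and nuclei were counted after 5 days.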

Bortezomib + Vorinostat = compound: CC(C)C[C@H](NC(=O)[C@H](Cc1ccccc1)NC(=O)c1cnccn1)B(O)O [Bortezomib] + O=C(CCCCCCC(=O)Nc1ccccc1)NO [Vorinostat] (partner 1 µM)
Outline: as §1

Obatoclax + Phenformin = compound: COC1=CC(c2cc3ccccc3[nH]2)=N/C1=C\c1[nH]c(C)cc1C [Obatoclax] + N=C(N)NC(=N)NCCc1ccccc1 [Phenformin] (partner 250 µM)
Outline: as §1

Obatoclax + Olaparib = compound: COC1=CC(c2cc3ccccc3[nH]2)=N/C1=C\c1[nH]c(C)cc1C [Obatoclax] + O=C(c1cc(Cc2n[nH]c(=O)c3ccccc23)ccc1F)N1CCN(C(=O)C2CC2)CC1 [Olaparib] (partner 8 µM)
Outline: as §1

Cell Line	relative viability (Bortezomib + Palbociclib; first compound 0.0002 µM)	relative viability (Bortezomib + Palbociclib; first compound 0.000632 µM)	relative viability (Bortezomib + Palbociclib; first compound 0.002 µM)	relative viability (Bortezomib + Palbociclib; first compound 0.006325 µM)	relative viability (Bortezomib + Palbociclib; first compound 0.02 µM)	relative viability (Bortezomib + Vorinostat; first compound 0.0002 µM)	relative viability (Bortezomib + Vorinostat; first compound 0.000632 µM)	relative viability (Bortezomib + Vorinostat; first compound 0.002 µM)	relative viability (Bortezomib + Vorinostat; first compound 0.006325 µM)	relative viability (Bortezomib + Vorinostat; first compound 0.02 µM)	relative viability (Obatoclax + Phenformin; first compound 0.01 µM)	relative viability (Obatoclax + Phenformin; first compound 0.03162 µM)	relative viability (Obatoclax + Phenformin; first compound 0.1 µM)	relative viability (Obatoclax + Phenformin; first compound 0.3162 µM)	relative viability (Obatoclax + Phenformin; first compound 1 µM)	relative viability (Obatoclax + Olaparib; first compound 0.01 µM)	relative viability (Obatoclax + Olaparib; first compound 0.03162 µM)	relative viability (Obatoclax + Olaparib; first compound 0.1 µM)	relative viability (Obatoclax + Olaparib; first compound 0.3162 µM)	relative viability (Obatoclax + Olaparib; first compound 1 µM)
LK-2	0.649	0.685	0.415	0.125	0.133	0.401	0.416	0.323	0.173	0.195	0.547	0.485	0.483	0.464	0.346	0.806	0.81	0.768	0.695	0.762
LOU-NH91	0.512	0.523	0.383	0.32	0.302	0.88	0.816	0.413	0.313	0.359	0.716	0.657	0.499	0.403	0.432	0.921	0.919	0.834	0.857	0.398
LU99A	0.464	0.364	0.405	0.261	0.164	0.479	0.427	0.533	0.464	0.152	0.885	0.854	0.74	0.77	0.417	0.292	0.243		0.313	0.321
LXF-289	0.573	0.58	0.633	0.102	0.0908	0.732	0.734	0.896	0.0875	0.0888	0.484	0.53	0.496	0.505	0.458	1.05	1.1	0.972	1.09	1
NCI-H23	0.456		0.398	0.158	0.13	0.603		0.495	0.132	0.0977	0.745	0.746	0.821	0.718	0.597	0.288	0.369	0.398	0.28	0.206
NCI-H322M	0.486	0.448	0.463	0.441	0.404	0.841	0.696	0.826	0.393	0.491	0.855	0.603		0.824	0.62	0.823	0.739	0.961	0.758	0.724
NCI-H358	0.158	0.11	0.0987	0.0826	0.0983	0.699	0.71	0.405	0.0638	0.0768	0.309	0.365	0.432	0.339	0.217	0.543	0.61	0.582	0.384	0.141
NCI-H441	0.22	0.2	0.129	0.109	0.101	0.865	0.803	0.243	0.138	0.141	0.664	0.79	0.771	0.614	0.475	0.63	0.6	0.527	0.359	0.288
NCI-H460	0.181	0.283	0.155	0.0455	0.0161	0.668	0.678	0.857	0.0257	0.0172	0.448	0.53	0.441	0.25	0.112	0.422	0.408		0.339	0.14
NCI-H520	0.198	0.18	0.169	0.141	0.131	0.825	0.713	0.177	0.15	0.138	0.677	0.562	0.589	0.532	0.455	0.301	0.323	0.372	0.289	0.208
NCI-H522	0.932	0.982	1.1	0.35	0.343	0.824	0.818	0.976	0.446	0.334	0.614	0.62	0.633	0.688	0.603	0.783	0.681	0.694	0.621	0.56
NCI-H647	0.385	0.251	0.426	0.0189	0.0229	0.492	0.583	0.0536	0.0218	0.0184	0.566	0.576	0.518	0.252	0.146	0.633	0.539	0.547	0.174	0.067
NCI-H661	0.4	0.409	0.434	0.284	0.203	0.747	0.74	0.758	0.269	0.295	0.284	0.256	0.262	0.263	0.234	0.741	0.729	0.729	0.676	0.516
NCI-H727	0.751	0.603	0.623	0.684	0.23	1.29	1.06	1.36	1.1	1.02	0.692	0.499	0.552	0.529	0.517	0.815	0.883	0.708	0.637	0.697
NCI-H838	0.211	0.23	0.191	0.136	0.103	0.683	0.752	0.676	0.157	0.144	0.567	0.622	0.362	0.46	0.322	0.747	0.79	0.792	0.577	0.255
NCI-H1355	0.394	0.4	0.398	0.24	0.138	0.632	0.657	0.696	0.416	0.121	0.456	0.458	0.431	0.44	0.397	0.76	0.767	0.781	0.667	0.717

Cell Line	relative viability (Bortezomib + Palbociclib; first compound 0.0002 µM)	relative viability (Bortezomib + Palbociclib; first compound 0.000632 µM)	relative viability (Bortezomib + Palbociclib; first compound 0.002 µM)	relative viability (Bortezomib + Palbociclib; first compound 0.006325 µM)	relative viability (Bortezomib + Palbociclib; first compound 0.02 µM)	relative viability (Bortezomib + Vorinostat; first compound 0.0002 µM)	relative viability (Bortezomib + Vorinostat; first compound 0.000632 µM)	relative viability (Bortezomib + Vorinostat; first compound 0.002 µM)	relative viability (Bortezomib + Vorinostat; first compound 0.006325 µM)	relative viability (Bortezomib + Vorinostat; first compound 0.02 µM)	relative viability (Obatoclax + Phenformin; first compound 0.01 µM)	relative viability (Obatoclax + Phenformin; first compound 0.03162 µM)	relative viability (Obatoclax + Phenformin; first compound 0.1 µM)	relative viability (Obatoclax + Phenformin; first compound 0.3162 µM)	relative viability (Obatoclax + Phenformin; first compound 1 µM)	relative viability (Obatoclax + Olaparib; first compound 0.01 µM)	relative viability (Obatoclax + Olaparib; first compound 0.03162 µM)	relative viability (Obatoclax + Olaparib; first compound 0.1 µM)	relative viability (Obatoclax + Olaparib; first compound 0.3162 µM)	relative viability (Obatoclax + Olaparib; first compound 1 µM)
NCI-H1395	0.591	0.614	0.38	0.31	0.253	0.762	0.547	0.515	0.301	0.306	0.449	0.38	0.428	0.467	0.44	0.454	0.418	0.444	0.529	0.332
NCI-H1437	0.305	0.35	0.319	0.135	0.118	0.782	0.875	0.555	0.219	0.172	0.242	0.317	0.314	0.296	0.246	0.634	0.623	0.626	0.623	0.533
NCI-H1650	0.342	0.312	0.136	0.117	0.146	0.575	0.58	0.151	0.139	0.155	0.429	0.427	0.494	0.449	0.295	0.764	0.742	0.774	0.539	0.229
NCI-H1651	0.505	0.504	0.401	0.113	0.103	0.568	0.571	0.534	0.587	0.134	0.384	0.324	0.386	0.252	0.184	0.182	0.164	0.189	0.224	0.179
NCI-H1666	0.62	0.699	0.608	0.569	0.472	1.03	1.04	1.11	0.539	0.5	0.576	0.542	0.571	0.494	0.421	0.769	0.726	0.766	0.691	0.585
NCI-H1734	0.38	0.342	0.266	0.108	0.0922	0.832	0.845	0.635	0.115	0.0944	0.436	0.341	0.318	0.318	0.32	0.609	0.624	0.601	0.546	0.505
NCI-H1755	0.426	0.438	0.452	0.263	0.248	0.813	0.644	0.748	0.245	0.208	0.622	0.6	0.492	0.634	0.541	0.873	0.901	0.868	0.787	0.839
NCI-H1793	0.336		0.375	0.205	0.143	0.689		0.682	0.381	0.125	0.404	0.32	0.377	0.345	0.332	0.869	0.833	0.939	0.784	0.783
NCI-H1915	0.476	0.519	0.54	0.118	0.0404	0.514	0.531	0.555	0.286	0.0313	0.361	0.362	0.337	0.363	0.343	0.269	0.256	0.252	0.257	0.247
NCI-H1944	0.315	0.309	0.336	0.21	0.15	0.563	0.546	0.633	0.333	0.148	0.215	0.202	0.149	0.201	0.18	0.412	0.427	0.443	0.418	0.392
NCI-H1975	0.663	0.517	0.138	0.1	0.106	0.661	0.655	0.154	0.123	0.135	0.438	0.427		0.355	0.228	0.78	0.695	0.746	0.744	0.288
NCI-H1993	0.569	0.737	0.666	0.369	0.359	0.894	0.987	0.605	0.258	0.266	0.481	0.537	0.531	0.478	0.48	0.95	1.15	0.984	1.01	1.11
NCI-H2009	0.241	0.205	0.176	0.0661	0.0466	0.745	0.735	0.703	0.0608	0.0437	0.472	0.507	0.385	0.27	0.194	0.687	0.712	0.705	0.573	0.26
NCI-H2023	0.303	0.345	0.332	0.0803	0.0773	0.813	0.423	0.618	0.078	0.0655	0.387	0.438	0.425	0.293	0.152	0.485	0.574	0.442	0.246	0.15
NCI-H2085	0.464	0.475	0.458	0.253	0.232	0.753	0.78	0.83	0.255	0.217	0.707	0.668	0.662	0.581	0.317	0.726	0.784	0.747	0.816	0.708
NCI-H2087	0.218	0.246	0.156	0.0525	0.036	0.465	0.886	0.555	0.0577	0.0279	0.423	0.372	0.513	0.344	0.193	0.588	0.596	0.436	0.451	0.226
